Patent publication US20260041744A1, “Methods for Treating Pompe Disease” (Amicus Therapeutics, Inc., priority 2022, published 2026)

Columns and labels:
[1] = system: subjects with late-onset Pompe disease (LOPD); details: systematic review, 368 LOPD subjects (Toscano and Schoser); cited from earlier work
Gaa KO mice = assay: Single fiber analysis (LAMP1/LC3 co-immunofluorescence, white gastrocnemius); format: in vivo, mouse; details: single fibers
From the text: FIG. 17 depicts co-immunofluorescent staining of LAMP1 (green) (see for example, “B”) and LC3 (red) (see, for example, “A”) in single fibers isolated from the white gastrocnemius of Gaa KO mice treated with a vehicle, alglucosidase alfa, or ATB200. “C” depicts clearance of autophagic debris and absence of enlarged lysosome. A minimum of 30 fibers were examined from each animal.
As a result, a significant portion of muscle fibers analyzed (36-60%) from ATB200-treated mice appeared normal or near-normal.

[2] = system: adult subjects with late-onset Pompe disease (LOPD); assay: Study ATB200-03 (PROPEL): PROMIS-Fatigue; format: in vivo, human; details: for CHG to Week 52 in PROMIS-Fatigue total score, LS Mean: MMRM, actual time point of assessments, decrease indicates improvement; for PROMIS-Fatigue Short Form 8a total score CHG, LS means (SE): Week 52, ANCOVA
Procedure: (§1) The test for the primary endpoint was conducted first at the 1-sided 0.025 significance level, and if significant, the ordered key secondary endpoints were similarly tested at the same significance level. The statistical significance of the key secondary endpoints was interpreted following a hierarchical testing order, each at the 1-sided alpha level of 0.025. […] Primary analyses of efficacy were performed using the mixed-effect model for repeated measures (MMRM) for 6MWD in Intent-to-treat Observed Population (ITT) that includes all available, observed data without any missing data imputation (ITT-OBS) and analysis of covariance (ANCOVA) for all other endpoints in the Intent-to-Treat-Last Observation Carried Forward (ITT-LOCF) Population. A nonparametric randomization based ANCOVA was specified as the first sensitivity analysis for 6MWD and FVC. […] For the purposes of data presentation in this document, 2-sided p-values are reported hereafter, except as otherwise noted.

[3] = system: adult subjects with late-onset Pompe disease (LOPD); assay: Study ATB200-03 (PROPEL): MMT lower extremity score; format: in vivo, human; details: for CHG to Week 52 in MMT lower extremity score, LS Mean: MMRM, actual time point of assessments; for MMT lower extremity score CHG, LS means (SE): Week 52, ANCOVA
Procedure: as §1

[4] = Baseline, ITT, ERT-naïve Population excluding Subject 4005-2511
[5] = ERT-naïve excluding Subject 4005-2511
[6] = ITT-LOCF, ERT-naïve Population excluding Subject 4005-2511
[7] = ITT-OBS excluding Subject 4005-2511 (overall)
[8] = ITT-OBS excluding Subject 4005-2511, ERT-naïve Subjects
[9] = ITT-OBS, ERT-experienced Subjects
[10] = Week 52-LOCF, ERT-experienced Population
[11] = Week 52-LOCF, ERT-naïve Population excluding Subject 4005-2511
[12] = Week 52-LOCF, ITT excluding Subject 4005-2511
[13] = ITT-LOCF excluding Subject 4005-2511
[14] = ITT-LOCF, ERT-experienced Population

## alglucosidase alfa [reference compound]
[1]
  subjects without initial improvement during treatment: > 30%
Gaa KO mice
  Fibers with Autophagy Buildup: >90%
  Fibers with Normal or Near-normal Appearance: <10%
[2]; [4]
  PROMIS-Fatigue Short Form 8a Total Score Absolute Value, Median: 24.00
[2]; Baseline, ITT, ERT-naïve Population excluding Subject 4005-2511, score 8 to 40, lower = less fatigue
  PROMIS-Fatigue Short Form 8a Total Score Absolute Value, Mean: 24.13
[2]; ERT-experienced Population
  mean (SD) change in PROMIS-Fatigue total score from baseline to Week 52: −0.5 (5.72)
[2]; [5]
  mean (SD) change in PROMIS-Fatigue total score from baseline to Week 52: −5.4 (6.61)
[2]; [6]
  Change in PROMIS-Fatigue total score baseline to Week 52, LS means (SE) from ANCOVA: −6.28 (2.757)
[2]; [7]
  CHG to Week 52 in PROMIS-Fatigue total score, LS Mean: −1.7
[2]; [8]
  CHG to Week 52 in PROMIS-Fatigue total score, LS Mean: −4.9
[2]; [9]
  CHG to Week 52 in PROMIS-Fatigue total score, LS Mean: −0.7
[2]; [10]
  PROMIS-Fatigue Short Form 8a Total Score Absolute Value, Mean: 19.87
  PROMIS-Fatigue Short Form 8a Total Score Absolute Value, Median: 18.00
  PROMIS-Fatigue Short Form 8a Total Score CHG, Mean: −0.50
  PROMIS-Fatigue Short Form 8a total score CHG, Median: 0.50
[2]; [11]
  PROMIS-Fatigue Short Form 8a Total Score Absolute Value, Mean: 16.43
  PROMIS-Fatigue Short Form 8a Total Score Absolute Value, Median: 15.00
  PROMIS-Fatigue Short Form 8a Total Score CHG (change from baseline), Mean: −7.70
  PROMIS-Fatigue Short Form 8a Total Score CHG (change from baseline), Median: −6.90
[2]; [12]
  PROMIS-Fatigue Short Form 8a Total Score Absolute Value, Median: 18.00
  PROMIS-Fatigue Short Form 8a total score Absolute Value, Mean (SD): 19.41 (6.735)
  PROMIS-Fatigue Short Form 8a total score CHG, Mean (SD): −1.67 (6.623)
  PROMIS-Fatigue Short Form 8a total score CHG, Median: −1.00
[2]; [13]
  PROMIS-Fatigue Short Form 8a total score CHG, LS means (SE): −1.94 (0.901)
[2]; [14]
  PROMIS-Fatigue Short Form 8a total score CHG, LS means (SE): −0.79 (0.953)
[2]; overall population
  mean (SD) change in PROMIS-Fatigue total score from baseline to Week 52: -1.9 (0.90)
[3]; [4]
  MMT Lower Extremity Score Absolute Value, Mean: 33.57
  MMT lower extremity score Absolute Value, Median: 32.00
[3]; ERT-experienced Population
  mean (SD) change in MMT lower extremity score from baseline to Week 52: 0.9 (2.81)
[3]; [5]
  mean (SD) change in MMT lower extremity score from baseline to Week 52: 1.0 (1.53)
[3]; [6]
  Change in MMT lower extremity score baseline to Week 52, LS means (SE) from ANCOVA: 0.69 (1.013)
[3]; [7]
  CHG to Week 52 in MMT lower extremity score, LS Mean: 0.7
[3]; [8]
  CHG to Week 52 in MMT lower extremity score, LS Mean: −0.0
[3]; [9]
  CHG to Week 52 in MMT lower extremity score, LS Mean: 0.9
[3]; [10]
  MMT lower extremity score Absolute Value, Mean (SD): 26.96 (6.802)
  MMT lower extremity score Absolute Value, Median: 28.00
  MMT lower extremity score CHG, Mean (SD): 0.85 (2.811)
  MMT lower extremity score CHG, Median: 1.00
[3]; [11]
  MMT Lower Extremity Score Absolute Value, Mean: 34.57
  MMT Lower Extremity Score CHG (change from baseline), Mean: 1.00
  MMT Lower Extremity Score CHG (change from baseline), Median: 2.00
  MMT lower extremity score Absolute Value, Median: 34.00
[3]; [12]
  MMT lower extremity score Absolute Value, Mean (SD): 28.53 (6.999)
  MMT lower extremity score Absolute Value, Median: 29.00
  MMT lower extremity score CHG, Mean (SD): 0.88 (2.579)
  MMT lower extremity score CHG, Median: 1.00
[3]; [13]
  MMT lower extremity score CHG, LS means (SE): 0.68 (0.603)
[3]; [14]
  MMT lower extremity score CHG, LS means (SE): 0.90 (0.735)
[3]; overall population
  mean (SD) change in MMT lower extremity score from baseline to Week 52: 0.9 (2.58)
